This test concerns murine peritoneal macrophages (mPMs). In words: mPM cytokine secretion by ELISA. The note with it: LPS 100 ng/mL, low-dose bryo-1. Type of test: cell-based. The protocol:
After overnight treatment of BMDCs or mPMs with LPS 100 ng/mL±bryo-1, culture supernatants were collected and cytokine production was assayed using ELISA kits for IL-12 p70 (catalog #88-7121-22), IL-6 (catalog #88-7064-22), and IL-10 (catalog #88-7105-22) purchased from eBioscience, according to manufacturer's instructions. Plates were read at 450 nm on a tabletop plate reader.
Mice aged 8-12 wk were injected intraperitoneally with 2 mL each of 3% sterile thioglycolate (BD Biosciences, catalog #211716) medium. The mice were killed 3-5 d later, and cells were harvested by peritoneal lavage with ice-cold RPMI medium containing 2% FBS (FBS) and 1 unit/mL heparin. The cells were pelleted by centrifugation at 500×g for 8 min, washed in ice-cold RPMI containing 2% FBS alone, pelleted by centrifugation, and resuspended in ice-cold Spinner-modification minimum essential medium (SMEM; Sigma, M8167) supplemented with 10% FBS, 2 mM glutamine, and penicillin-streptomycin (SMEM-complete). Cells were then counted, equal numbers were plated into each well of appropriate cell culture dishes, and the cells were then incubated at 37° C. for 2-4 h to allow macrophage adhesion. Contaminating nonadherent cells were then removed by washing culture dishes five times with ice-cold sterile PBS. Fresh SMEM-complete was then added to the plates, which were incubated overnight at 37° C. […]
A general note: ELISA stands for enzyme-linked immunosorbent assay.

On to `CCC/C=C/C=C/C(=O)OC1/C(=C/C(=O)OC)CC2CC(C(C)O)OC(=O)CC(O)CC3CC(OC(C)=O)C(C)(C)C(O)(CC4C/C(=C/C(=O)OC)CC(/C=C/C(C)(C)C1(O)O2)O4)O3` (centres unmarked) [bryo-1, Bryostatin-1], for which the “LPS-induced secretion of IL-6” value is listed as “inhibited” and the “LPS-induced secretion of IL-12” value is recorded as “inhibited”.

These data come from patent US12642786B2, “Methods, compositions and kits for treating multiple sclerosis and other disorders” (The Johns Hopkins University, priority 2018, dated 2026).
